Like-named read-outs stand apart in the source and are kept apart here.
Target: T1, EC-LigA (Escherichia coli DNA ligase LigA) (Escherichia coli, UniProt P15042)
T1 construct: purchased NEB
Assay: in vitro ligase assay (nicked DNA substrate, denaturing PAGE)
Assay type: biochemical
Settings: for inhibition of EC-LigA (result in words): concentrations up to 3333 µM; for extent of inhibition reached (complete or partial): highest concentration tested 3333 µM; for extent of ligation in the presence of small molecule: at all small molecule concentrations tested (up to 3333 µM), about 50% ligation without small molecule
Method: A 50 bp nicked DNA substrate was designed and prepared by annealing a 5′ hexachlorofluorescein (HEX) labelled, 3′ hydroxyl 20 nt single stranded oligonucleotide (20Top) and an unlabelled, 5′ phosphate 30 nt single stranded oligonucleotide (30Top) to a complementary unlabelled 50 nt single stranded oligonucleotide (50Bot) (Figure 4A). Incubation of this nicked DNA substrate with EC-LigA in the presence of NAD^+ cofactor should lead to phosphodiester bond formation between the 3′ hydroxyl of 20Top and the 5′ phosphate of 30Top to produce a 50 bp double stranded DNA product. The ligation reaction can be evaluated by resolving the 50 nt 5′ HEX labelled single stranded DNA and the 20 nt 5′ HEX labelled 20Top single stranded DNA by denaturing polyacrylamide gel electrophoresis (PAGE). The inhibitory activity of small molecules on EC-LigA activity can then be assessed by comparing the extent of ligation (the percentage of 50 nt 5′ HEX labelled single stranded DNA produced) in the absence of small molecule to the extent of ligation in the presence of small molecule. Small molecule inhibitors of EC-LigA will reduce the percentage of 50 nt 5′ HEX labelled single stranded DNA produced.
Figure 4 In vitro screening of candidate EC-LigA small molecule inhibitors. (A) A schematic of the in vitro ligation assay. A 50 bp nicked DNA substrate was prepared by annealing a 5′ hexachlorofluorescein (HEX) labelled, 3′ hydroxyl 20 nt single stranded oligonucleotide (20Top, blue) and an unlabelled, 5′ phosphate 30 nt single stranded oligonucleotide (30Top) to a complementary unlabelled 50 nt single stranded oligonucleotide (50Bot). Subsequent ligation of 20Top and 30Top, by EC-LigA produced a 50 bp double stranded DNA product comprising 5′ HEX labelled 50 nt DNA (50Top, green) and the complementary unlabelled 50 nt DNA 50Bot. (B) Representative 10% (w/v) denaturing PAGE of in vitro ligase assays performed with 120 nM nicked DNA substrate, 30 nM EC-LigA and 26 µM NAD^+ in reaction buffer (30 mM Tris HCl, pH 8.0, 4 mM MgCl2, 1 mM DTT, and 50 µg/mL BSA) in the presence of increasing concentrations of geneticin (0–3333 µM) or chlorhexidine (0–3333 µM) at room temperature for 5 min. Blue and green triangles mark the HEX labelled 20Top (substrate) and 50Top (product) DNA species, respectively. Gels were quantitated using ImageJ and the mean percentage 50Top DNA product was plotted against small molecule concentration. Error bars represent the standard error of the mean for a minimum of two experimental repeats. […] (D) As for (B) but for increasing concentrations of 5-azacytidine (0–3333 µM) or imidazo[1,2-a]pyridine-7-C (0–3333 µM). (E) As for (B) but for increasing concentrations of bestatin (0–3333 µM) or 2-(aminomethyl)imidazole (0–3333 µM).
Quenched reactions were heat-denatured at 100°C for 3 min and placed on ice. Reaction products were resolved by 10% (w/v) denaturing PAGE (10% (w/v) polyacrylamide gels containing 20% formamide and 7 M urea). Inclusion of formamide in the polyacrylamide gels aided maintenance of single-stranded species during electrophoresis. Gels were visualised using a fluorescence-imager (Fuji FLA-5000) using an excitation wavelength of 532 nm. Digitised images were quantitated using ImageJ software (NIH) and the percentage of 20Top (substrate) and 50Top (product) in each lane was calculated. Data were fit to a three-parameter IC50 inhibition function: y=Ymax/1+(x/IC50)^n
In this equation, y is the percentage of 50Top (product) at small molecule inhibitor concentration x; Ymax is the theoretical maximal percentage of 50Top (product) that can be formed, IC50 is the concentration of small molecule inhibitor at half Ymax, and n is the Hill slope factor.

[1] = 120 nM nicked DNA, 30 nM EC-LigA, 26 µM NAD+, room temperature, 5 min, three-parameter fit, read-out: IC50

T1 sequence (P15042 whole entry): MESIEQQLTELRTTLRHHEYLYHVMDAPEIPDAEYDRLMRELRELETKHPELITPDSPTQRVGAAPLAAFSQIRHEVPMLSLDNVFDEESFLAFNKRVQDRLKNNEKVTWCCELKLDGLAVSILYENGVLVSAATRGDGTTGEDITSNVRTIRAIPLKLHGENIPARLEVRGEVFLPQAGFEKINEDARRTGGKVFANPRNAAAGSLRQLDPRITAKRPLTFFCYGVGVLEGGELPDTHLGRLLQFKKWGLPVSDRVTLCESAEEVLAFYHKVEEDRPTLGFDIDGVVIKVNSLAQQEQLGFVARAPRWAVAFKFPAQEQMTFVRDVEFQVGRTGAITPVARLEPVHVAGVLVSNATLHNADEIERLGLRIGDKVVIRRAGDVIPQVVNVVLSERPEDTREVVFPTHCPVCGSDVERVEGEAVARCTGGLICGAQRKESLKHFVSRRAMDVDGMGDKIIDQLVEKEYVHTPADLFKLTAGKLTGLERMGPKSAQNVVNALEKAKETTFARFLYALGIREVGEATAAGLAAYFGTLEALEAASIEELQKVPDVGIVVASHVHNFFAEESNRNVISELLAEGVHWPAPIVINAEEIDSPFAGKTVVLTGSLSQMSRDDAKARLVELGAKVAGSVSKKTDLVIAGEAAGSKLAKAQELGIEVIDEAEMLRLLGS

Compound	IC50 [1] [µM]	IC50 (apparent IC50, read-out: IC50) [µM]	inhibition of EC-LigA (result in words)	extent of inhibition reached (complete or partial)	extent of ligation in the presence of small molecule	IC50 (IC50, 120 nM nicked DNA, 30 nM EC-LigA, 26 µM NAD+, room temperature, 5 min, three-parameter fit) [µM]	IC50 (IC50, as stated in the text, apparent IC50) [µM]
NCc1ncc[nH]1 [2-(aminomethyl)imidazole]	872 ± 248	870	inhibited the ligation reaction in a dose-dependent manner	inhibition was only partial			
Nc1ncn([C@@H]2O[C@H](CO)[C@@H](O)[C@H]2O)c(=O)n1 [5-azacytidine, reference compound]			do not inhibit EC-LigA		approximately 50%		
[H]/N=C(\N/C(=N/[H])NCCCCCCNC(=N)NC(=N)Nc1ccc(Cl)cc1)Nc1ccc(Cl)cc1 [Chlorhexidine, chlorhexidine, reference compound]	11		inhibited the ligation reaction in a dose-dependent manner	Complete inhibition of ligation was observed			
CN[C@@H]1[C@@H](O)[C@@H](O[C@@H]2[C@@H](O)[C@H](O[C@H]3O[C@H]([C@@H](C)O)[C@@H](O)[C@H](O)[C@H]3N)[C@@H](N)C[C@H]2N)OC[C@]1(C)O [Geneticin, geneticin, reference compound]	2600 ± 85.4		inhibited the ligation reaction in a dose-dependent manner	Complete inhibition of ligation was observed			
N[C@@H](CCC(=O)N[C@@H](CS)C(=O)NCC(=O)O)C(=O)O [Glutathione, glutathione]			inhibited the ligation reaction in a dose-dependent manner	Complete inhibition of ligation was observed		1523 ± 10.1	1520
O=C(NCNC(=O)NC1C(=O)NC(=O)N1CO)NC1C(=O)NC(=O)N1CO (centres unmarked) [Imidazolidinyl urea, imidazolidinyl urea]	38.5		inhibited the ligation reaction in a dose-dependent manner	Complete inhibition of ligation was observed			
CC(C)C[C@H](NC(=O)[C@@H](O)[C@H](N)Cc1ccccc1)C(=O)O [bestatin, reference compound]			do not inhibit EC-LigA		approximately 50%		
O=C(O)c1ccn2ccnc2c1 [imidazo[1,2-a]pyridine-7-C, imidazo[1,2-a]pyridine-7-carboxylic acid]			do not inhibit EC-LigA		approximately 50%		
